According to publication PMC2360244 (British Journal of Cancer, 2007):
Read-outs that look alike come from different tables or passages of the source.

Assays:
[1] = system: acetylated H3 in A2780 ovarian xenografts; test: H3 acetylation in A2780 xenograft tumour tissue, immunofluorescence; assay type: in vivo, mice; conditions: 40 mpk p.o. once daily, tumours harvested 4 h after dosing, day 2
Experimental: For immunofluorescent staining of AcH3, cryosections of A2780 ovarian carcinoma were fixed for 2 min in 4% neutral buffered formalin and subsequently for 10 min in ethanol (100%). After blocking with goat immunoglobulin (Jackson Immunoresearch Laboratories, Suffolk, UK) for 60 min, the sections were incubated with anti-AcH3 (Upstate, 1/5000) for 2 h and with goat anti-rabbit CY3-conjugated secondary antibody (1/500 Jackson Immunoresearch Laboratories) for 2 h. For negative controls, primary antibody was omitted. Nuclei were counterstained using Hoechst (1/2000) for 5 min and the cryosections were mounted in glycerin-gelatin. Images were taken using the Zeiss Axioplan 2 & Axiocam, and processed using Photoshop 7.0 and Image Tool Processing Kit. Representative images of each group (n=3) are shown. For TUNEL staining, cells were fixed with 4% paraformaldehyde for 5 min and then incubated for 1 h at 37°C in a solution containing 25 mM Tris, 200 mM sodium cacodylate, 1.25 mg ml^−1 BSA, 1.25 mM CoCl2, 10 mM dATP (Sigma Chemical Company), 2.5 mM fluorescein-dUTP (Amersham Pharmacia Biotech AB) and 50 U ml^−1 TdT (Roche, Vilvoorde, Belgium). Incorporated Fluorescein-dUTP was detected with a sheep antifluorescein peroxidase-conjugated antiserum (Boehringer Mannheim, 1/600, Roche, Vivoorde, Belgium). The peroxidase conjugate was visualised using amino ethylcarbazol. […]

[2] = system: microvessel outgrowth from rat aortic rings; test: Rat aortic ring assay (angiogenesis); assay type: cell-based, Sprague-Dawley rats; conditions: 192 h, 300 nM, 8 days, compared to controls, mean±s.e.m., read-out: inhibition of total microvessel area
Experimental: Briefly, thoracic aorta were freshly isolated from 1- to 2-month-old Sprague–Dawley rats and 1-mm-long sections (aortic rings) were embedded in fibrin gel clots in six-well plates. […] Test compounds were added at the indicated concentrations at day 0 and again together with fresh media on day 2 and day 5 of culture. The ability of experimental compounds to inhibit microvessel outgrowth was compared directly with vehicle-treated control rings. […] Microvessel area, expressed as pixels^2, was determined for each aortic ring and the per cent inhibition of microvessel area compared to control rings was calculated using the mean values for each treatment group. Statistical differences between experimental groups (five independent rings) were analysed by ANOVA and Dunnett's t-test, with a P-value of <0.05 or less considered statistically significant.
(B) Rat Aortic Ring Assays were performed as described in the Methods section.

[3] = system: A2780 ovarian carcinoma cells; test: A2780 tumour cell proliferation, MTT colorimetric assay; assay type: cell-based, human; conditions: Homo sapiens, A2780, 96 h, 4 days, mean±s.d.
Experimental: (§1) Control cells were treated with the combined respective vehicle.

[4] = system: H460 lung carcinoma xenograft; test: H460 lung xenograft, tumour growth; assay type: in vivo, mice; conditions: median tumour size at end of study
Experimental: (§2) All mice used in the in vivo studies were athymic male NMRI nu/nu mice purchased from Janvier (France) and were treated according to the ethical guidelines prescribed by UKCCCR. A2780 ovarian, HCT116 colon and H460 lung carcinoma cells were injected s.c. (10^7 cells per 200 μl) into the inguinal region of Nude mice. […] Tumour size was determined using caliper measurement and tumour volume was determined by using the formula: TV=(a^2 × b)/2 (in which a represents the width and b the length).
(§3) Mice were treated orally once daily (q.d.) between day 4 and 28 (A2780) or between day 4 and 32 (H460 and HCT116). (A) A2780 ovarian tumours were measured at least twice a week throughout the study, and results are represented as the median tumour size, expressed in mm^3, of each individual group (n=10). (B) Mice were treated orally q.d. at the indicated doses. Results are represented as the treated/control values (%) of the median tumour size (n=10) at the end of the study.

[5] = Tolerability of once-daily oral dosing for 28 days; assay type: in vivo; conditions: up to 40 mpk p.o., immunodeficient mice
Experimental: as §2

[6] = system: HCT116 colon carcinoma xenograft; test: HCT116 colon xenograft, tumour growth; assay type: in vivo, mice; conditions: median tumour size at end of study
Experimental: as §2, §3

[7] = system: tubulin acetylation and Hsp70 in A2780 ovarian carcinoma cells; test: Western blot of acetylated tubulin and Hsp70 in A2780 cells (HDAC6 readout); assay type: cell-based, human; conditions: 24 h, western blot
Experimental: Human A2780 ovarian carcinoma cells were incubated with the indicated concentrations of HDAC inhibitors. Total cell lysates were prepared and analysed by SDS–PAGE. […] To control for equal loading, blots were stripped and re-probed with mouse monoclonal antiactin IgM (Ab-1, Oncogene Research products, Merck, Darmstadt, Germany). […] Protein–antibody complexes were then visualised by chemiluminescence (Pierce Chemical Co., Perbioscience, Erembodegem, Belgium) or fluorescence (Odyssey) according to manufacturer's instructions.
Total cell lysates were prepared and analysed by SDS–PAGE. Levels of acetylated H3 and tubulin, and of total levels of H3 and tubulin and of p21^waf1, cip1 and Hsp70 and c-raf protein, were detected using rabbit polyclonal and mouse monoclonal antibodies, followed by ECL detection as indicated in the Methods section. To control for equal loading, blots were stripped and re-probed with antibodies against actin and the nuclear protein Lamin B1. A representative experiment out of three is shown.

HUVECs = test: cells; conditions: Homo sapiens, HUVEC, read-out: IC50, growth of HUVECs
Experimental: as §1

[8] = system: primary human mammary epithelial cells (HMEC); test: cells
Experimental: as §1

p21waf1,cip1 promoter = p21waf1,cip1 promoter activity in vivo, A2780-p21waf1,cip1ZsGreen xenograft; parameters: species or system mice; conditions: 40 mpk p.o. once, 24 h after dosing
Experimental: To generate an HDAC inhibitor-responsive p21^waf1,cip1 promoter construct, the –1300 to +88 region of the p21^waf1,cip1 promoter was cloned into pGL3-basic-ZsGreen and stably transfected into A2780 ovarian carcinoma cells ([Belien et al, 2006]). For in vivo analysis of p21^waf1,cip1 promoter activity, A2780-p21^waf1,cip1ZsGreen cells were injected s.c. (10^7 cells per 200 μl) into the inguinal region of Nude mice and caliper-measurable tumours were obtained after 12 days. […] Tumours were collected using transcardial perfusion fixation with 4% paraformaldehyde. Cryosections of 10-μm thickness were mounted on glass slides and air-dried for 30 min at room temperature. Bodipy 558/568-phalloidin staining was performed on whole mounts to visualise actin (background cell staining). ZsGreen fluorescence was evaluated with an Axioplan 2 (Zeiss, Germany) equipped with Epiplan-Neofluar objectives and an Axiocam camera. CD-31 (CY3) immunofluorescent labelling was performed on whole mounts to visualise the endothelium of blood vessels.
(A) Tumours were harvested 4 h after the last dose. Nuclei are stained with Hoechst, while (CY3) immunofluorescent labelling was performed to visualise acetylated H3. Representative sections from […] independent mice are shown. (B) and (C) Tumours were collected after 24 h using transcardial perfusion fixation with 4% paraformaldehyde. […]

O=C(NO)c1cnc(N2CCN(S(=O)(=O)c3ccc4ccccc4c3)CC2)nc1 [R306465]
H3 acetylation in tumour tissue [1]: maximal and homogeneous increase in H3 acetylation | inhibition at 0.3 µM [2]: 67 ± 7% | IC50 [3]: 0.039 ± 0.017 µM | T/C values (%) H460 lung ([4]; 10 mpk p.o. q.d. day 4 to 32): 56% | T/C values (%) H460 lung ([4]; 20 mpk p.o. q.d. day 4 to 32): 64% | T/C values (%) H460 lung ([4]; 40 mpk p.o. q.d. day 4 to 32): 31% | tolerability [5]: well-tolerated | T/C values (%) HCT116 colon ([6]; 10 mpk p.o. q.d. day 4 to 32): 76% | T/C values (%) HCT116 colon ([6]; 20 mpk p.o. q.d. day 4 to 32): 75% | T/C values (%) HCT116 colon ([6]; 30 mpk p.o. q.d. day 4 to 32): 57% | T/C values (%) HCT116 colon ([6]; 40 mpk p.o. q.d. day 4 to 32): 34% | concentration at which tubulin acetylation and Hsp70 levels increase [7]: 1 µM | IC50 (HUVECs): 0.186 ± 0.023 µM | IC50 ([8]; read-out: IC50, primary HMEC proliferation): 0.032 ± 0.0097 µM | IC50 ([8]; read-out: IC50, quiescent non-proliferative HMEC cells): 7.82 ± 0.435 µM | p21waf1,cip1 promoter activation (ZsGreen fluorescence) in tumour sections (p21waf1,cip1 promoter): large number of fluorescing cells
